Assay [1] has as its system multidrug resistant human epidermoid carcinoma (KBV1) cells. Description: Growth inhibition of vinblastine-resistant KBV1 cells (reversal of multidrug resistance). In kind it is cell-based. On the procedure:
The ability of compounds of this invention to reverse multi drug resistance can be determined using standard test procedures. The ability of the test compounds to inhibit the growth of multidrug resistant human epidermoid carcinoma (KBV1) cells in the presence of both Vinblastine and the compound was determined. […]

Assay [2] has the same test system. The description is as above. It is filed as cell-based. This is another data set of the same source.

Counter-ions that a name gives are not always drawn.

`COc1ccc(CCN2CCCCC2CC(c2ccccc2)c2ccccc2)cc1OC` (stereo not shown) [1-(3,4-Dimethoxyphenethyl)-2-(2,2-diphenylethyl)piperidine Maleate]: the inhibition at 0.06 µM was found to be 30.4% in assay [1] (KB-V1, compound 0.06 µM + VLB at 0.25 µg/ml) and 1% in assay [2] (Homo sapiens, KB-V1, compound alone, 0.06 µM). In addition, the inhibition at 0.12 µM in assay [1] (KB-V1, compound 0.12 µM + VLB at 0.25 µg/ml) is 60%; in assay [2] (Homo sapiens, KB-V1, compound alone, 0.12 µM), 0%. For the same compound, the inhibition at 0.18 µM worked out at 91.6% in assay [1] (KB-V1, compound 0.18 µM + VLB at 0.25 µg/ml) and 8.1% in assay [2] (Homo sapiens, KB-V1, compound alone, 0.18 µM). Besides, the inhibition at 0.23 µM was 94.2% in assay [1] (KB-V1, compound 0.23 µM + VLB at 0.25 µg/ml) and 12.2% in assay [2] (Homo sapiens, KB-V1, compound alone, 0.23 µM).
For `CC[C@]1(O)C[C@@H]2CN(CCc3c([nH]c4ccccc34)[C@@](C(=O)OC)(c3cc4c(cc3OC)N(C)[C@H]3[C@@](O)(C(=O)OC)[C@H](OC(C)=O)[C@]5(CC)C=CCN6CC[C@]43[C@@H]65)C2)C1` [Vinblastine, reference compound], in assay [2] (Homo sapiens, KB-V1, VLB at 0.25 µg/ml alone, read-out: growthinhibition), the inhibition at 0.25 µg/mL was in the range of 0 to 10%. Also, the growth inhibition in assay [2] (Vinblastine (0.25 µg/ml) alone) is reported as 0 - 10%.

Values taken from patent EP0643693B1, “REVERSAL OF MULTI-DRUG RESISTANCE BY TRIPHENYL-PIPERIDINE DERIVATIVES” (MERRELL PHARMACEUTICALS INC., priority 1992, dated 1993).
